From publication PMC10042772 (Targeted Oncology, 2023)

Tests used:
MDA-MB-453 cells = assay: CellTiter-Glo 2.0 viability assay, 10 days; assay type: cell-based, human; settings: MDA-MB-453, 10 days of continuous exposure
CBP/p300 over BRD4 = settings: selective CBP/p300 binder; cited from earlier work
[1] = cited from earlier work

SMILES	times less active than FT-6876 at inhibiting proliferation (MDA-MB-453 cells) [times]	selectivity over BRD4 and other BRD and BET family members (CBP/p300 over BRD4) [fold]	microsomal stability [1]
CNC(=O)c1ccc(N2C(=S)N(c3ccc(C#N)c(C(F)(F)F)c3)C(=O)C2(C)C)cc1F [Enzalutamide, enzalutamide]	45		
COc1ccc(CCc2nc3cc(-c4c(C)noc4C)ccc3n2C[C@H](C)N2CCOCC2)cc1Cl [SGC-CBP30]		40	poor microsomal stability
